Measured values as given in publication PMC5421785, “Citrullination only infrequently impacts peptide binding to HLA class II MHC” (PLoS ONE, 2017).
Read-outs that look alike come from different tables or passages of the source. One block for each compound: values may come before it. Square brackets hold non-standard residues; d marks the D form. Ends that are not written are not given here. Peptide text beside a SMILES is read from it. Cit = NC(=O)NCCC[C@H](N)C(=O)O

Columns and labels:
[1] = target: T1, HLA-DRB1*04:01 (Homo sapiens, UniProt P01903+P01911, A100K/A169T/F76Y/I96L/K127E/L162R/M171V/N62H/P40V/Q125Y/R42H/S133A/S149N/S66Y/V115G/V209L/W38E); assay: HLA class II peptide binding, inhibition of radiolabeled peptide binding to purified MHC
T1 construct: EBV transformed homozygous cell lines were used as sources of MHC molecules; endogenous in cells; host or cells: EBV transformed homozygous cell lines

[2] = target: T2, HLA-DRB1*01:01 (Homo sapiens, UniProt P01903+P01911, A100R/D57E/F55L/F60I/F76Y/I96L/L162R/M171V/P40L/Q125E/R42F/V115G/Y59C); assay: as above
T2 construct: EBV transformed homozygous cell lines were used as sources of MHC molecules; endogenous in cells; host or cells: EBV transformed homozygous cell lines

[3] = citrullinated 15-mer peptide (X = citrulline), purified HLA-DRB1*04:01, read-out: DRB1*04:01 binding capacity, Cit peptide (IC50 nM)
[4] = citrullinated 15-mer peptide (X = citrulline), purified HLA-DRB1*01:01, read-out: DRB1*01:01 binding capacity, Cit peptide (IC50 nM)
[5] = wild-type (unmodified Arg) 15-mer peptide, purified HLA-DRB1*04:01, read-out: DRB1*04:01 binding capacity, WT peptide (IC50 nM)
[6] = wild-type (unmodified Arg) 15-mer peptide, purified HLA-DRB1*01:01, read-out: DRB1*01:01 binding capacity, WT peptide (IC50 nM)
[7] = citrullinated 15-mer (X), purified MHC, inhibition of radiolabeled peptide binding, dash = IC50 >40,000 nM, read-out: DRB1*04:01 binding capacity, Cit peptide (IC50 nM)
[8] = citrullinated 15-mer (X), purified MHC, inhibition of radiolabeled peptide binding, dash = IC50 >40,000 nM, read-out: DRB1*01:01 binding capacity, Cit peptide (IC50 nM)

IC50 [1, 3]: > 40000 nM
IC50 [2, 4]: 21000 nM
Compound: CC(C)C[C@H](NC(=O)CNC(=O)[C@H](CCCNC(N)=O)NC(=O)[C@@H]1CCCN1C(=O)CNC(=O)[C@@H](N)CCC(N)=O)C(=O)N1CCC[C@H]1C(=O)NCC(=O)N[C@H](C(=O)N1CCC[C@H]1C(=O)NCC(=O)N[C@H](C(=O)N[C@@H](CC(=O)O)C(=O)NCC(=O)N1CCC[C@H]1C(=O)O)[C@@H](C)O)[C@@H](C)O [QGPXGLPGTPGTDGP] (H-QGP[Cit]GLPGTPGTDGP-OH)

IC50 [1, 5]: 4550 nM
IC50 [2, 6]: 7110 nM
Compound: CC[C@H](C)[C@H](NC(=O)[C@H](CCC(=O)O)NC(=O)[C@H](CC(=O)O)NC(=O)[C@@H](N)CCC(N)=O)C(=O)N[C@@H](CCC(N)=O)C(=O)N[C@@H](CC(N)=O)C(=O)N[C@@H](CCSC)C(=O)N[C@@H](CCCCN)C(=O)N[C@@H](CCC(=O)O)C(=O)N[C@@H](CCC(=O)O)C(=O)N[C@@H](CCSC)C(=O)N[C@@H](C)C(=O)N[C@@H](CCCNC(=N)N)C(=O)N[C@@H](Cc1c[nH]cn1)C(=O)N[C@@H](CC(C)C)C(=O)O [Vimentin 366 WT]

IC50 [1, 3]: > 40000 nM
IC50 [2, 4]: 1620 nM
Compound: C[C@H](NC(=O)CNC(=O)[C@H](C)NC(=O)[C@@H]1CCCN1C(=O)CNC(=O)[C@@H](NC(=O)[C@H](CCCNC(=N)N)NC(=O)CNC(=O)[C@H](CCCNC(N)=O)NC(=O)[C@@H](N)CCC(=O)O)[C@@H](C)O)C(=O)N[C@@H](C)C(=O)NCC(=O)N[C@@H](C)C(=O)N[C@@H](CCCNC(=N)N)C(=O)NCC(=O)O [EXGRTGPAGAAGARG] (H-E[Cit]GRTGPAGAAGARG-OH)

IC50 [1, 3]: 1890 nM
IC50 [2, 4]: 853 nM
Compound: CC[C@H](C)[C@H](NC(=O)[C@H](CCCNC(=N)N)NC(=O)[C@H](CO)NC(=O)[C@H](CCC(=O)O)NC(=O)[C@H](CCC(=O)O)NC(=O)CNC(=O)[C@H](CCC(=O)O)NC(=O)[C@H](CC(C)C)NC(=O)[C@H](CC(C)C)NC(=O)[C@H](CCCCN)NC(=O)[C@@H](N)CCCNC(N)=O)C(=O)N[C@@H](CO)C(=O)N[C@@H](CC(C)C)C(=O)N1CCC[C@H]1C(=O)N[C@@H](CC(C)C)C(=O)O [XKLLEGEESRISLPL]

IC50 [1, 3]: 7440 nM
IC50 [2, 4]: 1740 nM
Compound: CC(C)[C@H](NC(=O)[C@H](CCC(N)=O)NC(=O)[C@H](CCCNC(N)=O)NC(=O)[C@H](CCCNC(=N)N)NC(=O)[C@H](Cc1ccc(O)cc1)NC(=O)[C@H](CCC(=O)O)NC(=O)[C@@H](NC(=O)[C@H](CO)NC(=O)[C@H](CCC(=O)O)NC(=O)[C@H](CCC(N)=O)NC(=O)[C@H](CCCCN)NC(=O)[C@H](C)NC(=O)[C@@H](N)CCC(N)=O)[C@@H](C)O)C(=O)N[C@@H](CCC(N)=O)C(=O)N[C@@H](CO)C(=O)O [QAKQESTEYRXQVQS] (H-QAKQESTEYR[Cit]QVQS-OH)

IC50 ([1]; read-out: DRB1*04:01 binding capacity, WT peptide (IC50 nM)): 17200 nM
IC50 ([2]; read-out: DRB1*01:01 binding capacity, WT peptide (IC50 nM)): 6310 nM
Compound: ARLDLERKVESLQEE [Vimentin 216 WT]

IC50 [1, 3]: 33300 nM
IC50 [2, 4]: 2270 nM
Compound: CC(C)[C@H](NC(=O)[C@H](CC(=O)O)NC(=O)CNC(=O)[C@H](CCCNC(N)=O)NC(=O)[C@@H](N)CC(=O)O)C(=O)NCC(=O)N[C@@H](CCC(=O)O)C(=O)N[C@@H](CCCCN)C(=O)NCC(=O)N1CCC[C@H]1C(=O)N[C@@H](CCC(=O)O)C(=O)NCC(=O)N[C@@H](C)C(=O)N1CCC[C@H]1C(=O)NCC(=O)O [DXGDVGEKGPEGAPG] (H-D[Cit]GDVGEKGPEGAPG-OH)

IC50 ([1]; citrullinated peptide as listed (X at Cit position), read-out: DRB1*04:01 binding capacity Cit peptide (IC50 nM)): 138 nM
IC50 ([1]; value of the wild-type (non-citrullinated) counterpart of the listed peptide, read-out: DRB1*04:01 binding capacity WT peptide (IC50 nM)): 646 nM
IC50 ([2]; citrullinated peptide as listed (X at Cit position), read-out: DRB1*01:01 binding capacity Cit peptide (IC50 nM)): 9.3 nM
IC50 ([2]; value of the wild-type (non-citrullinated) counterpart of the listed peptide, read-out: DRB1*01:01 binding capacity WT peptide (IC50 nM)): 29 nM
Compound: CC[C@H](C)[C@H](NC(=O)[C@@H](NC(=O)[C@@H](NC(=O)[C@H](CCCCN)NC(=O)CN)[C@@H](C)O)C(C)C)C(=O)N[C@@H](CCC(=O)O)C(=O)N[C@@H](Cc1ccc(O)cc1)C(=O)N[C@@H](CCCNC(=N)N)C(=O)N[C@@H](CO)C(=O)N[C@@H](CCC(N)=O)C(=O)N[C@@H](CCCCN)C(=O)N[C@H](C(=O)N[C@@H](CO)C(=O)N[C@@H](CCCNC(N)=O)C(=O)N[C@@H](CC(C)C)C(=O)O)[C@@H](C)O [GKTVIEYRSQKTSXL] (H-GKTVIEYRSQKTS[Cit]L-OH)

IC50 [1, 3]: 1510 nM
IC50 [2, 4]: 97 nM
Compound: CC(C)C[C@H](NC(=O)[C@H](CO)NC(=O)[C@H](CCC(N)=O)NC(=O)[C@@H](NC(=O)[C@H](CCC(N)=O)NC(=O)[C@H](CCCNC(=N)N)NC(=O)[C@H](CCCNC(N)=O)NC(=O)[C@H](Cc1ccc(O)cc1)NC(=O)[C@H](CCC(=O)O)NC(=O)[C@@H](NC(=O)[C@@H](N)CO)[C@@H](C)O)C(C)C)C(=O)N[C@H](C(=O)N[C@@H](CS)C(=O)N[C@@H](CCC(=O)O)C(=O)N[C@H](C(=O)O)C(C)C)[C@@H](C)O [STEYXRQVQSLTCEV] (H-STEY[Cit]RQVQSLTCEV-OH)

IC50 [1, 7]: > 40000 nM
DRB1*04:01 binding capacity, WT/cit ratio ([1]; ratio of WT IC50 to Cit IC50): 1.0
IC50 [2, 8]: > 40000 nM
DRB1*01:01 binding capacity, WT/cit ratio ([2]; ratio of WT IC50 to Cit IC50): 1.0
Compound: CC(C)C[C@H](NC(=O)[C@H](C)NC(=O)[C@H](CC(=O)O)NC(=O)[C@H](CC(N)=O)NC(=O)[C@H](CC(N)=O)NC(=O)[C@H](CCCNC(N)=O)NC(=O)[C@H](CC(N)=O)NC(=O)[C@H](C)NC(=O)[C@H](C)N)C(=O)N[C@@H](CCCNC(=N)N)C(=O)N[C@@H](CCC(N)=O)C(=O)N[C@@H](C)C(=O)N[C@@H](CCCCN)C(=O)N[C@@H](CCC(N)=O)C(=O)N[C@@H](CCC(=O)O)C(=O)O [AANXNNDALRQAKQE] (H-AAN[Cit]NNDALRQAKQE-OH; N-terminus and C-terminus assumed)

IC50 [1, 5]: > 40000 nM
IC50 [2, 6]: 29 nM
Compound: ERGLKGHRGFTGLQG [Collagen 1126 WT]

IC50 [1, 3]: > 40000 nM
IC50 [2, 4]: 29 nM
Compound: CC(C)C[C@H](NC(=O)[C@H](CC(C)C)NC(=O)[C@@H](NC(=O)[C@H](CC(C)C)NC(=O)[C@H](CC(C)C)NC(=O)[C@@H](N)C(C)C)[C@@H](C)O)C(=O)N[C@H](C(=O)N[C@@H](C)C(=O)N[C@@H](C)C(=O)N[C@H](C(=O)N[C@@H](CC(C)C)C(=O)N[C@@H](CCCNC(N)=O)C(=O)N[C@@H](CS)C(=O)N[C@@H](CCC(N)=O)C(=O)NCC(=O)O)C(C)C)C(C)C [VLLTLLVAAVLXCQG] (H-VLLTLLVAAVL[Cit]CQG-OH)

IC50 [1, 7]: 27400 nM
IC50 [2, 8]: 252 nM
Compound: CSCC[C@H](NC(=O)[C@H](CCCNC(=N)N)NC(=O)[C@H](CCCNC(N)=O)NC(=O)[C@@H](N)Cc1ccc(O)cc1)C(=O)N[C@@H](Cc1ccccc1)C(=O)NCC(=O)NCC(=O)N1CCC[C@H]1C(=O)NCC(=O)N[C@H](C(=O)N[C@@H](C)C(=O)N[C@@H](CO)C(=O)N[C@@H](CCCNC(=N)N)C(=O)N1CCC[C@H]1C(=O)N[C@@H](CO)C(=O)O)[C@@H](C)O [YXRMFGGPGTASRPS] (H-Y[Cit]RMFGGPGTASRPS-OH)

IC50 [1, 7]: 906 nM
IC50 [2, 8]: 37 nM
Compound: CSCC[C@H](NC(=O)[C@H](CCCNC(=N)N)NC(=O)[C@H](CCCNC(N)=O)NC(=O)[C@H](Cc1ccc(O)cc1)NC(=O)[C@H](CO)NC(=O)[C@H](CO)NC(=O)[C@H](CO)NC(=O)[C@H](CO)NC(=O)[C@@H](N)C(C)C)C(=O)N[C@@H](Cc1ccccc1)C(=O)NCC(=O)NCC(=O)N1CCC[C@H]1C(=O)NCC(=O)N[C@H](C(=O)O)[C@@H](C)O [VSSSSYXRMFGGPGT] (H-VSSSSY[Cit]RMFGGPGT-OH)

IC50 [1, 3]: > 40000 nM
IC50 [2, 4]: 96 nM
Compound: CC(C)C[C@H](NC(=O)CNC(=O)[C@H](CCCNC(N)=O)NC(=O)[C@@H](N)CCC(=O)O)C(=O)N[C@@H](CCCCN)C(=O)NCC(=O)N[C@@H](Cc1c[nH]cn1)C(=O)N[C@@H](CCCNC(=N)N)C(=O)NCC(=O)N[C@@H](Cc1ccccc1)C(=O)N[C@H](C(=O)NCC(=O)N[C@@H](CC(C)C)C(=O)N[C@@H](CCC(N)=O)C(=O)NCC(=O)O)[C@@H](C)O [EXGLKGHRGFTGLQG] (H-E[Cit]GLKGHRGFTGLQG-OH)

IC50 [1, 7]: > 40000 nM
IC50 [2, 8]: 5570 nM
Compound: CC(C)C[C@H](NC(=O)[C@H](CCC(=O)O)NC(=O)[C@H](CCC(N)=O)NC(=O)[C@H](CC(C)C)NC(=O)[C@H](CCC(=O)O)NC(=O)[C@@H](NC(=O)[C@H](CCCCN)NC(=O)[C@H](CCC(=O)O)NC(=O)[C@H](CC(N)=O)NC(=O)[C@@H](N)[C@@H](C)O)C(C)C)C(=O)N[C@@H](CC(N)=O)C(=O)N[C@@H](CC(=O)O)C(=O)N[C@@H](CCCNC(N)=O)C(=O)N[C@@H](Cc1ccccc1)C(=O)N[C@@H](C)C(=O)O [TNEKVELQELNDXFA] (H-TNEKVELQELND[Cit]FA-OH)

IC50 [1, 5]: 600 nM
IC50 [2, 6]: 138 nM
Compound: STEYRRQVQSLTCEV [Vimentin 316 WT]

IC50 [1, 3]: > 40000 nM
IC50 [2, 4]: 514 nM
Compound: CC(C)C[C@H](NC(=O)CNC(=O)[C@@H]1CCCN1C(=O)[C@H](C)NC(=O)CNC(=O)[C@@H]1CCCN1C(=O)[C@H](CC(C)C)NC(=O)CN)C(=O)N[C@@H](CCCNC(N)=O)C(=O)NCC(=O)N[C@@H](CC(C)C)C(=O)N1CCC[C@H]1C(=O)NCC(=O)N[C@@H](CCCCN)C(=O)N[C@@H](CC(=O)O)C(=O)O [GLPGAPGLXGLPGKD] (H-GLPGAPGL[Cit]GLPGKD-OH)
